Calls of active or inactive are those of the source. The calls are words filed in the database; no cut-off is given here.
Tests used:
Cytochrome P450 3A5 = Cytochrome P450 3A5 (Homo sapiens, UniProt P20815); assay: Inhibition of CYP3A5 (unknown origin); assay type: ADME
[1] = AUC (0 to 7 hrs) in Han Wistar rat CSF at 2 mg/kg, po by LC-MS/MS analysis; assay type: ADME, organism-based, Cerebrospinal fluid; design: time < 7 hr, dose 2 mg/kg, route oral; conditions: Han Wistar, CSF
[2] = Ratio of unbound AUC (0 to 7 hrs) in brain to blood of Han Wistar rat at 2 mg/kg, po by LC-MS/MS analysis; assay type: ADME, organism-based; conditions: Han Wistar, brain and blood, read-out: K(p,uu,brain)
[3] = Antiproliferative against human PC9 cells expressing EGFR exon19 deletion mutant after 72 hrs by MTS assay; assay type: functional, cell-based; conditions: PC-9, 72 h
Cytochrome P450 1A2 = Cytochrome P450 1A2 (Homo sapiens, UniProt P05177); assay: Inhibition of CYP1A2 (unknown origin); assay type: ADME
[4] = molecular target: T1, Vascular endothelial growth factor receptor 2 (Homo sapiens, UniProt P35968); assay: Inhibition of recombinant KDR (unknown origin) at 1 uM after 40 mins by scintillation counting analysis in presence of [gamma33P]-ATP
[5] = Tmax in beagle dog at 2 mg/kg, po; assay type: ADME, organism-based, Canis lupus familiaris; conditions: in vivo
[6] = Permeability from apical to basolateral side in MDCK2-MDR1 cells; assay type: ADME, cell-based, Canis lupus familiaris, MDCK-II; conditions: dog, MDCK-MDR1
[7] = molecular target: T2, Proto-oncogene tyrosine-protein kinase Src (Homo sapiens, UniProt P12931); assay: Inhibition of recombinant Src (unknown origin) after 40 mins by scintillation counting analysis in presence of [gamma33P]-ATP
Hepatocyte = assay: Intrinsic clearance in human hepatocytes; assay type: ADME, cell-based
[8] = molecular target: Tyrosine-protein kinase Fyn (Homo sapiens) (UniProt P06241); assay: Inhibition of recombinant Fyn (unknown origin) at 1 uM after 40 mins by scintillation counting analysis in presence of [gamma33P]-ATP
Mus musculus [9] = assay: Toxicity in PC9 cells expressing EGFR exon19 deletion mutant xenografted mouse assessed as loss of body weight at 15 mg/kg, qd; assay type: organism-based, PC-9; conditions: in vivo
[10] = Cmax in Han Wistar rat at 2 mg/kg, po at 1 hr; assay type: ADME, organism-based; design: dose 2 mg/kg, route oral; conditions: in vivo
[11] = molecular target: Tyrosine-protein kinase Lyn (Homo sapiens) (UniProt P07948); assay: Inhibition of recombinant Lyn (unknown origin) at 1 uM after 40 mins by scintillation counting analysis in presence of [gamma33P]-ATP
[12] = molecular target: Tyrosine-protein kinase Lck (Homo sapiens) (UniProt P06239); assay: Inhibition of recombinant Lck (unknown origin) at 1 uM after 40 mins by scintillation counting analysis in presence of [gamma33P]-ATP
Cytochrome P450 2C9 = Cytochrome P450 2C9 (Homo sapiens, UniProt P11712); assay: Inhibition of CYP2C9 (unknown origin); assay type: ADME
NCI-H838 = assay: Antiproliferative against human NCI-H838 cells expressing EGFR wild-type after 72 hrs by MTS assay; assay type: functional, cell-based; conditions: NCI-H838, 72 h
[13] = AUC(0 to 24 hrs) in beagle dog at 2 mg/kg, po; assay type: ADME, organism-based, Canis lupus familiaris; design: dose 2 mg/kg, time < 24 hr, route oral; conditions: in vivo
[14] = AUC(0 to 24 hrs) in Han Wistar rat at 2 mg/kg, po; assay type: ADME, organism-based; design: dose 2 mg/kg, time < 24 hr, route oral; conditions: Han Wistar, in vivo
[15] = molecular target: T1, Vascular endothelial growth factor receptor 2; assay: Inhibition of recombinant KDR (unknown origin) after 40 mins by scintillation counting analysis in presence of [gamma33P]-ATP
PC-9 [16] = assay: Antitumor activity against human PC9 cells expressing EGFR exon19 deletion mutant xenografted in mouse measured after 4 weeks; assay type: functional, cell-based
Cytochrome P450 2C8 = Cytochrome P450 2C8 (Homo sapiens, UniProt P10632); assay: Inhibition of CYP2C8 (unknown origin); assay type: ADME
[17] = Fraction unbound in Han Wistar rat blood at 5 uM by equilibrium dialysis method; assay type: ADME, tissue-based; conditions: Han Wistar
Cytochrome P450 3A4 = Cytochrome P450 3A4 (Homo sapiens, UniProt P08684); assay: Inhibition of CYP3A4 (unknown origin); assay type: ADME
[18] = Cmax in beagle dog at 2 mg/kg, po; assay type: ADME, organism-based, Canis lupus familiaris; design: dose 2 mg/kg, route oral; conditions: in vivo
[19] = Ratio of fraction unbound in brain to plasma of cynomolgus monkey at 150 MBq, iv by positron emission tomography; assay type: ADME, organism-based, Macaca fascicularis
[20] = molecular target: Vascular endothelial growth factor receptor 1 (Homo sapiens) (UniProt P17948); assay: Inhibition of recombinant Flt (unknown origin) at 1 uM after 40 mins by scintillation counting analysis in presence of [gamma33P]-ATP
Cytochrome P450 2B6 = Cytochrome P450 2B6 (Homo sapiens, UniProt P20813); assay: Inhibition of CYP2B6 (unknown origin); assay type: ADME
[21] = Fraction unbound in Han Wistar rat brain at 5 uM by equilibrium dialysis method; assay type: ADME, tissue-based; conditions: Han Wistar, brain
[22] = molecular target: Ephrin type-B receptor 4 (Homo sapiens) (UniProt P54760); assay: Inhibition of recombinant EpHB4 (unknown origin) at 1 uM after 40 mins by scintillation counting analysis in presence of [gamma33P]-ATP
[23] = molecular target: T2, Proto-oncogene tyrosine-protein kinase Src; assay: Inhibition of recombinant Src (unknown origin) at 1 uM after 40 mins by scintillation counting analysis in presence of [gamma33P]-ATP
[24] = Ratio of unbound AUC (0 to 7 hrs) in CSF to blood of Han Wistar rat at 2 mg/kg, po by LC-MS/MS analysis; assay type: ADME, organism-based; conditions: Han Wistar, CSF and blood
PC-9 [25] = assay: Antitumor activity against human PC9 cells expressing EGFR exon19 deletion mutant xenografted in mouse assessed as modulation of pEGFR expression in brain at 15 mg/kg administered as single dose measured after 1 hr by immunohistochemical analysis; assay type: functional, organism-based
[26] = AUC (0 to 7 hrs) in Han Wistar rat blood at 2 mg/kg, po by LC-MS/MS analysis; assay type: ADME, organism-based; design: dose 2 mg/kg, time < 7 hr, route oral; conditions: Han Wistar, blood
[27] = AUC (0 to 7 hrs) in Han Wistar rat brain at 2 mg/kg, po by LC-MS/MS analysis; assay type: ADME, organism-based; design: dose 2 mg/kg, time < 7 hr, route oral; conditions: Han Wistar, brain
[28] = Elimination half life in Han Wistar rat at 1 mg/kg, iv; assay type: ADME, organism-based; conditions: Han Wistar, in vivo, read-out: beta t1/2 (converted)
[29] = Oral bioavailability in beagle dog at 2 mg/kg; assay type: ADME, organism-based, Canis lupus familiaris; conditions: in vivo
Mus musculus [30] = assay: Toxicity in PC9 cells expressing EGFR exon19 deletion mutant xenografted mouse assessed as loss of body weight at 7.5 mg/kg, qd; assay type: organism-based, PC-9; conditions: in vivo
PC-9 [31] = assay: Antitumor activity against human PC9 cells expressing EGFR exon19 deletion mutant xenografted in mouse assessed as tumor regression at 15 mg/kg, qd measured after 4 weeks; assay type: functional, organism-based
[32] = Antitumor activity against human PC9 cells expressing EGFR exon19 deletion mutant xenografted in mouse assessed as tumor growth inhibition at 7.5 mg/kg, qd measured after 4 weeks; assay type: functional; conditions: PC-9, 672 h
[33] = Elimination half life in Han Wistar rat at 2 mg/kg, po; assay type: ADME, organism-based; conditions: in vivo, read-out: beta t1/2 (converted)
PC-9 [34] = assay: Antitumor activity against human PC9 cells expressing EGFR exon19 deletion mutant xenografted in mouse assessed as decrease in tumor area in brain at 7.5 mg/kg, qd; assay type: functional, organism-based
[35] = Volume of distribution at steady state in Han Wistar rat at 1 mg/kg, iv; assay type: ADME, organism-based; conditions: Han Wistar, in vivo, read-out: Vdss
Cytochrome P450 2C19 = Cytochrome P450 2C19 (Homo sapiens, UniProt P33261); assay: Inhibition of CYP2C19 (unknown origin); assay type: ADME
[36] = AUC(0 to 24 hrs) in beagle dog at 1 mg/kg, iv; assay type: ADME, organism-based, Canis lupus familiaris; design: dose 1 mg/kg, time < 24 hr, route intravenous; conditions: in vivo
[37] = Oral bioavailability in Han Wistar rat at 2 mg/kg; assay type: ADME, organism-based; conditions: Han Wistar, in vivo
PC-9 [38] = assay: Antitumor activity against human PC9 cells expressing EGFR exon19 deletion mutant xenografted in mouse assessed as decrease in tumor area in brain at 15 mg/kg, qd; assay type: functional, organism-based
[39] = Antiproliferative against human H3255 cells expressing EGFR L858R mutant after 72 hrs by MTS assay; assay type: functional, cell-based; conditions: NCI-H3255, 72 h
D(2) dopamine receptor = D(2) dopamine receptor (Homo sapiens, UniProt P14416); assay: Inhibition of recombinant D2 receptor (unknown origin)
[40] = Elimination half life in beagle dog at 1 mg/kg, iv; assay type: ADME, organism-based, Canis lupus familiaris; conditions: in vivo, read-out: beta t1/2 (converted)
[41] = molecular target: Tyrosine-protein kinase Yes (Homo sapiens) (UniProt P07947); assay: Inhibition of recombinant Yes (unknown origin) at 1 uM after 40 mins by scintillation counting analysis in presence of [gamma33P]-ATP
[42] = Volume of distribution at steady state in beagle dog at 1 mg/kg, iv; assay type: ADME, organism-based, Canis lupus familiaris; conditions: in vivo, read-out: Vdss
[43] = Ratio of fraction unbound in brain to plasma of cynomolgus monkey at 155 MBq, iv by positron emission tomography; assay type: ADME, organism-based, Macaca fascicularis
[44] = Clearance in beagle dog at 1 mg/kg, iv; assay type: ADME, organism-based, Canis lupus familiaris; conditions: in vivo
[45] = Elimination half life in beagle dog at 2 mg/kg, po; assay type: ADME, organism-based, Canis lupus familiaris; conditions: in vivo, read-out: beta t1/2 (converted)
Cytochrome P450 2D6 = Cytochrome P450 2D6 (Homo sapiens, UniProt P10635); assay: Inhibition of CYP2D6 (unknown origin); assay type: ADME
[46] = Clearance in Han Wistar rat at 1 mg/kg, iv; assay type: ADME, organism-based; conditions: in vivo

T1 sequence (P35968 whole entry): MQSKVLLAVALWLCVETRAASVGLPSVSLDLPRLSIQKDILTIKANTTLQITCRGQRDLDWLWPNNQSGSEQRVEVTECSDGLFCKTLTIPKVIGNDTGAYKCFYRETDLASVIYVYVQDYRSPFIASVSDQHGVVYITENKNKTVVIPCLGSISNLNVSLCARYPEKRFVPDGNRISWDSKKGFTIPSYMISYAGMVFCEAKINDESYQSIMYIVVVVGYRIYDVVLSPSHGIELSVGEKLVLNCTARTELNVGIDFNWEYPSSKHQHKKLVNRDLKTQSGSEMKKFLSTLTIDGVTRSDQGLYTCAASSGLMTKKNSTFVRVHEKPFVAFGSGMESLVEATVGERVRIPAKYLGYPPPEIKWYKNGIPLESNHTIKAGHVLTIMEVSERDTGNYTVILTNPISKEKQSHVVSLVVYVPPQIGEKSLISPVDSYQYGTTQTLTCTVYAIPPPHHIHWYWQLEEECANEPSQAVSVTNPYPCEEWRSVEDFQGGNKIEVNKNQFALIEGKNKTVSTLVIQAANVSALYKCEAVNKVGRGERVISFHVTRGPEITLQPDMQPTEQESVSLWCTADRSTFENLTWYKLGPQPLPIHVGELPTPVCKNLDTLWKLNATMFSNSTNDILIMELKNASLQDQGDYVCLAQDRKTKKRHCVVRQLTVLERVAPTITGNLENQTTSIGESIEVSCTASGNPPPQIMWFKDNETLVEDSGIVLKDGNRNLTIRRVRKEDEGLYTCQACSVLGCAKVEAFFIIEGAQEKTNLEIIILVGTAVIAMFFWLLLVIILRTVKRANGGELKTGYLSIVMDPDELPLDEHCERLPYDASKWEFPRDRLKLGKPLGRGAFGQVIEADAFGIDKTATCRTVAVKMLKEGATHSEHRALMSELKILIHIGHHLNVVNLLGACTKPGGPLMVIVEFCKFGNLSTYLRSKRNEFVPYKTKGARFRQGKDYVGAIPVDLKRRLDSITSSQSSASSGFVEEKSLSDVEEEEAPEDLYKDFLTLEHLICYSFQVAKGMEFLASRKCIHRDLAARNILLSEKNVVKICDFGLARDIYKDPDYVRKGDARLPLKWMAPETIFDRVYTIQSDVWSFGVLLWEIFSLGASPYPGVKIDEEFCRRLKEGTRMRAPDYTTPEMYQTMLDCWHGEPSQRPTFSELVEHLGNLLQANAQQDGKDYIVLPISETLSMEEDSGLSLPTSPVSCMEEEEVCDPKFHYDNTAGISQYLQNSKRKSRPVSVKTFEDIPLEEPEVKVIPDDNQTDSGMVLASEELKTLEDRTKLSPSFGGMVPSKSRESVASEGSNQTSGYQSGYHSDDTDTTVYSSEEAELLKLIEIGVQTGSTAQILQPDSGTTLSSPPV
T2 sequence (P12931 2-536 limits assumed): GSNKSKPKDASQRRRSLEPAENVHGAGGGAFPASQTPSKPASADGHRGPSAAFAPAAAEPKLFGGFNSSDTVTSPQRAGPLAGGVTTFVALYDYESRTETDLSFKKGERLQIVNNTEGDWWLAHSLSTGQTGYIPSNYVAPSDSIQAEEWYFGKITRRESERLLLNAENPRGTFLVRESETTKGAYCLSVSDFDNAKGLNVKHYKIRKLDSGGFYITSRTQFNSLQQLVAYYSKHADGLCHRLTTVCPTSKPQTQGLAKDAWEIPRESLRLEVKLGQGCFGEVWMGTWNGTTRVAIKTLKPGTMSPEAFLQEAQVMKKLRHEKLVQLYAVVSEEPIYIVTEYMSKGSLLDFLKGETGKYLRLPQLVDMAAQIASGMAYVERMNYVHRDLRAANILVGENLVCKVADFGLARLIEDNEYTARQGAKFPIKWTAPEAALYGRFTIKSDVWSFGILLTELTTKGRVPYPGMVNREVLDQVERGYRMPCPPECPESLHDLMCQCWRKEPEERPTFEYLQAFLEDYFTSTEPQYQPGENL
Chain of Cytochrome P450 2C19 (P33261 whole entry): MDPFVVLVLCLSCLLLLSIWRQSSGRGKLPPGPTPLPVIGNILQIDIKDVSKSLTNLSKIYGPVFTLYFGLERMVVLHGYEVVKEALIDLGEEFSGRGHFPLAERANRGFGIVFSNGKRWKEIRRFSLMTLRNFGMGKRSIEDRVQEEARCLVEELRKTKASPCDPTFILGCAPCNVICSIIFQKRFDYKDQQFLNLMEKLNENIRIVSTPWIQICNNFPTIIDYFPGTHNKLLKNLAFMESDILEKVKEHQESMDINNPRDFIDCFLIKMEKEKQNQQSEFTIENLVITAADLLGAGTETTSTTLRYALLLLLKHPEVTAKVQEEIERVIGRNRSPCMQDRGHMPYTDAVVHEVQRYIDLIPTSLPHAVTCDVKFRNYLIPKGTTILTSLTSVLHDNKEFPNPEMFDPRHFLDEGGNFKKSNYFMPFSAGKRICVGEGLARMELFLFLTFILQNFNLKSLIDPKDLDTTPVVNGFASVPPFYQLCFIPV
Chain of D(2) dopamine receptor (P14416 whole entry): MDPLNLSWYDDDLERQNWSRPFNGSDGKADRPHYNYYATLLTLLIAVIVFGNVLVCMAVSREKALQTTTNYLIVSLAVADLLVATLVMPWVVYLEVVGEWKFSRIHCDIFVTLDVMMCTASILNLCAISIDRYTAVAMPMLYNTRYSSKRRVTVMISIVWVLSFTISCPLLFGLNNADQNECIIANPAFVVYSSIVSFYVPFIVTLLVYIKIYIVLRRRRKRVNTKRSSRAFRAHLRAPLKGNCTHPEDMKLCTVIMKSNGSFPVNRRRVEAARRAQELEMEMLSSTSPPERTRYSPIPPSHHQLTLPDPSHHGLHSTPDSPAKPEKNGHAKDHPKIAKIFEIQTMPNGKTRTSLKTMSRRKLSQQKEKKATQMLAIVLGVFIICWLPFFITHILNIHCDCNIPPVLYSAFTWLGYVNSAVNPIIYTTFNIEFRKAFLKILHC
Chain of Tyrosine-protein kinase Lck (Homo sapiens) (P06239 2-509 limits assumed): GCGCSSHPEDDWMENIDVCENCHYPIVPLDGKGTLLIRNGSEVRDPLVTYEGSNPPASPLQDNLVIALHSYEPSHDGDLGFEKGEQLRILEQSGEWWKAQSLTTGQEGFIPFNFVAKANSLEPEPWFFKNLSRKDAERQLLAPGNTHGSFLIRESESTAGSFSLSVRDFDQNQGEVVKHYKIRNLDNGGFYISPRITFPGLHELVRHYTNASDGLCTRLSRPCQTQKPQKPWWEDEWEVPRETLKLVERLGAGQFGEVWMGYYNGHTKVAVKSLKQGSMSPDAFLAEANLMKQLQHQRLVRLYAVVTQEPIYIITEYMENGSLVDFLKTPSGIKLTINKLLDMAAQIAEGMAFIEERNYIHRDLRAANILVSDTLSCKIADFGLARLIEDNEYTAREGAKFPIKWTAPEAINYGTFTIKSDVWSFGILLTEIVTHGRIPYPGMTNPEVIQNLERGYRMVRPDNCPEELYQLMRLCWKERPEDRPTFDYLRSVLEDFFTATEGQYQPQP
Chain of Cytochrome P450 2B6 (P20813 whole entry): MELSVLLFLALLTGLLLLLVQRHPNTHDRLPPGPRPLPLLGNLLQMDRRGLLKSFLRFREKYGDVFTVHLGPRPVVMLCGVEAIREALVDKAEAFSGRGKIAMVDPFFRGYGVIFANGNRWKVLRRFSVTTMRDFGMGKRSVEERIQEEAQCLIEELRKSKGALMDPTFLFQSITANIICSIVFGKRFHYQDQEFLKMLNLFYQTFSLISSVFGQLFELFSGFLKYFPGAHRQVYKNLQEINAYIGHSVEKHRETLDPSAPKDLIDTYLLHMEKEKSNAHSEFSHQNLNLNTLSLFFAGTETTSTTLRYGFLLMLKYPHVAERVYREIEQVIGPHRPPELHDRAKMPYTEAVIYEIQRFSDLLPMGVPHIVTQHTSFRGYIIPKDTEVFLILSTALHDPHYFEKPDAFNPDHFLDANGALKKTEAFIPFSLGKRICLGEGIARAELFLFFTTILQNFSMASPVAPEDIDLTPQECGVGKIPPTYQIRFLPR
Chain of Cytochrome P450 2C8 (P10632 whole entry): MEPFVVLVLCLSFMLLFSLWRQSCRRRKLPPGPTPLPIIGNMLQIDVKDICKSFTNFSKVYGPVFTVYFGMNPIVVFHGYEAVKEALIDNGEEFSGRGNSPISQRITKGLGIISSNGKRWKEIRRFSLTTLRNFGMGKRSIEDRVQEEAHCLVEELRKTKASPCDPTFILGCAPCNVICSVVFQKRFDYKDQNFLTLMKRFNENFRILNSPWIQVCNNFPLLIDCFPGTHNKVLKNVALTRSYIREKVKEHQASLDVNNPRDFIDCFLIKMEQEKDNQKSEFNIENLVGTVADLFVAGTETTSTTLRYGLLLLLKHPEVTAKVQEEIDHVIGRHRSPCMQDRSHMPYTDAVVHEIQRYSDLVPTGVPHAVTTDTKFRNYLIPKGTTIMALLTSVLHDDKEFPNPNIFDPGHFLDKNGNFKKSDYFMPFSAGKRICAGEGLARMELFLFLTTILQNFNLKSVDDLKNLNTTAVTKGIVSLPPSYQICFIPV
Chain of Cytochrome P450 2D6 (P10635 whole entry): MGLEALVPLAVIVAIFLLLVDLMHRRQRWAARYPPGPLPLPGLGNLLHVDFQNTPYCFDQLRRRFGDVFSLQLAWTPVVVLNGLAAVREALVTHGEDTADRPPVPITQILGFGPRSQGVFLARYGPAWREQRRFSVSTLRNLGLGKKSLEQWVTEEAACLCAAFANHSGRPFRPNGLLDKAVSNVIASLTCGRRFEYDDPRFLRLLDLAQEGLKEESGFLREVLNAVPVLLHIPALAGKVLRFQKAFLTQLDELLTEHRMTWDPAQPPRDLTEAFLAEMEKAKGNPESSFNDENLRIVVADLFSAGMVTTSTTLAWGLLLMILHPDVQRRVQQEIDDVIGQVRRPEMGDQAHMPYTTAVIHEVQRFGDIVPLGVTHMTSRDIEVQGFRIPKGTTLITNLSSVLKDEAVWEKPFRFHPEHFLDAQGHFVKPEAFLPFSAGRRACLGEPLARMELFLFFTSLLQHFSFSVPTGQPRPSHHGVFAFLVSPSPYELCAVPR

**Q.** What does the source list for `COc1cc2ncnc(Nc3cccc(Cl)c3F)c2cc1OC(=O)N1CCN(C)C[C@H]1C` [AZD-3759]?
**A.** IC50 (Cytochrome P450 3A5): > 50 µM; AUC(0-t) at 7 h [1]: 0.076 µM·h; Kp uu [2]: 1.3; IC50 [3]: 0.0077 µM; IC50 (Cytochrome P450 1A2): > 50 µM; inhibition [4]: 62%; Tmax [5]: 0.5 h; Papp A→B [6]: 36 ×10⁻⁶ cm/s; IC50 [7]: 0.622 µM; CLH (Hepatocyte): 11.4 µL/min; inhibition [8]: 58%; Activity (Mus musculus [9]): < 20%; Cmax [10]: 580 nM; inhibition [11]: 74%; inhibition [12]: 61%; IC50 (Cytochrome P450 2C9): > 50 µM; IC50 (NCI-H838): 21.6 µM; AUC(0-t) at 24 h [13]: 4.62 µM·h; AUC(0-t) at 24 h [14]: 3.8 µM·h; IC50 [15]: 0.156 µM; Activity (PC-9 [16]): Dose-dependent effect; IC50 (Cytochrome P450 2C8): > 50 µM; fraction unbound at 5 µM [17]: 0.047; IC50 (Cytochrome P450 3A4): > 50 µM; Cmax [18]: 698 nM; BPR [19]: 0.5; inhibition [20]: 57%; IC50 (Cytochrome P450 2B6): > 50 µM; fraction unbound at 5 µM [21]: 0.02; inhibition [22]: 83%; inhibition [23]: 69%; Kp uu [24]: 1.3; Activity (PC-9 [25]): Active; AUC(0-t) at 7 h [26]: 1.23 µM·h; AUC(0-t) at 7 h [27]: 3.69 µM·h; half-life [28]: 4.1 h; bioavailability [29]: 90.2%; Activity (Mus musculus [30]): < 20%; Activity (PC-9 [31]): Active; inhibition in vivo at 7.5 mg/kg [32]: 78%; half-life [33]: 4.3 h; inhibition (PC-9 [34]): Active; Vd [35]: 5.2 L/kg; IC50 (Cytochrome P450 2C19): > 50 µM; AUC(0-t) at 24 h [36]: 2.56 µM·h; bioavailability [37]: 91%; inhibition (PC-9 [38]): Active; IC50 [39]: 0.007 µM; IC50 (D(2) dopamine receptor): 0.797 µM; half-life [40]: 6.2 h; inhibition [41]: 87%; Vd [42]: 6.4 L/kg; BPR [43]: 0.53; clearance [44]: 14 mL/min/kg; half-life [45]: 5.5 h; IC50 (Cytochrome P450 2D6): > 50 µM; clearance [46]: 17 mL/min/kg
